Like-named read-outs stand apart in the source and are kept apart here. Blank lines part the entries; values can stand above or below the compound they belong to.
Key:
[1] = Clinical evaluation, excretion parameters at 1st and 55th application (Example 6); format: in vivo, human; conditions: for Analyte Excreted, Free / Analyte Excreted, Total: formulation of Example 4b on scalp
Experimental: The formulation described in Example 4b was studied in a clinical trial to evaluate its pharmacokinetic profile, safety, and tolerability. According to the study protocol, 1 ml of the formulation (corresponding to 50 mg of cortexolone-17α-propionate) was applied once a day on study day 1 and then twice daily thereafter on study days 2-28 to the areas of the scalp suffering from alopecia. Statistical analyses were performed using SAS® version 9.1.3, service pack 4 for Windows and Phoenix WinNonLin 6.3, Pharsight Corporation, USA.

[2] = Evaluation of cortexolone-17α-propionate solubility (Example 1); format: physicochemical; conditions: 5 g in 100 ml
Experimental: 5 g of cortexolone-17α-propionate was added to 100 ml of each of the solvents or solvent mixtures shown in Table 1, below, in an effort to produce a 5% w/v solution of cortexolone-17α-propionate. In the examples in Table 1, ethanol refers to ethanol 96°.

[3] = Franz cell diffusion test 1 (Example 7); format: in vitro ADME; conditions: for Permeation rate / Skin concentration: 48 h, saturated solution, 300 mg on 2.54 cm^2 skin, 32° C.
Experimental: In an in vitro study, the skin penetration potential of cortexolone-17α-propionate was compared to cyproterone acetate using a standard Franz cell. According to the protocol, 300 mg of each test formulations was applied as saturated solution with a concentration ranging from 0.7 to 1 weight (w/w) to 2.54 cm^2 of exposed skin area. The receptor chamber volume ranged from 4.75 ml to 6.4 ml of phosphate buffered saline/fetal calf serum (2:1) containing penicillin/streptomycin according to standard protocol, and was maintained at a temperature of 32° C.+/−1° C. Stirring was maintained at 300 rpm.
The experiments were conducted for 48 h in triplicate. 100 μl fractions were withdrawn at 5-7 time points during the 48 h test period. After withdrawing a 100 μl fraction for analysis, it was replaced with fresh receiver fluid in an equal volume. At the end of the experiment, the skin was taken from the Franz cells and the skin's stratum corneum was removed by tape stripping (20×) with transparent adhesive tape (Koren, Spain).
The strippings were analyzed by dissolution in a mixture of propylene glycol:oeyl alcohol 9:1. The resulting mixture was analyzed for concentration of cyproterone acetate and cortexolone-17α-propionate, with the results provided in Table 12, below.

[4] = test system: AGA; experiment: Finasteride 1 mg tablets phase III clinical studies 087 and 089, published by the FDA (Example 11); format: in vivo, human; conditions: original value divided by 5.1
Experimental: Based on the results of finasteride 1 mg tablets (PROPECIA®) described in the two Phase III clinical studies published online by the United States Food and Drug Administration (the FDA), it can be concluded that the mean change from baseline in non-vellus TAHC at month 6 for cortexolone-17α-propionate solution 5% (according to Example 4b), as reported in Example 9, is very similar to the mean change from baseline in non-vellus TAHC at month 6 observed in 2 phase III clinical trials on finasteride 1 mg tablets (tradename Propecia®) per os once daily. Table 20 below reports the change from baseline in TAHC at month 6 in the two finasteride studies (data of active finasteride groups) as described in the NDA for PROPECIA® published online by the FDA:
In the two finasteride studies, the target area was a 1-inch diameter circle, which corresponds to 5.1 cm^2. In order to compare the changes from baseline in TAHC at month 6 obtained in the finasteride studies and the change from baseline in TAHC at month 6 obtained with cortexolone-17α-propionate in the study of the present Example 9 (where the target area was 1 cm^2), the original finasteride data have been recalculated to take into account the differences between the total surfaces of the target areas (i.e., the values were divided by 5.1) as shown in Table 21.

[5] = test system: AGA; conditions: cited from earlier work
[6] = test system: serum DHT as well as scalp DHT; conditions: single oral administration of finasteride 1 mg; cited from earlier work
[7] = PROPECIA package insert; 1 mg tablets; cited from earlier work
[8] = 1st Application (Day 1), N = 18
[9] = 55th Application (Day 28), N = 17

- Analyte Excreted, Free [1, 8]: BLQL
- Analyte Excreted, Total [1, 8]: 0.06 ± 0.26 µg
- Analyte Excreted, Free [1, 9]: BLQL
- Analyte Excreted, Total [1, 9]: 0.64 ± 0.74 µg
Compound: C[C@]12CCC(=O)C=C1CC[C@@H]1[C@@H]2CC[C@@]2(C)[C@H]1CC[C@]2(O)C(=O)CO [Cortexolone, cortexolone]

- Cortexolone-17α-propionate Solubility at Room Temperature ([2]; Caprylocaproyl polyoxyl-8 glycerides NF (LABRASOL ®)): Sparingly soluble
- Cortexolone-17α-propionate Solubility at Room Temperature ([2]; Ethanol (96°)): Highly soluble
- Cortexolone-17α-propionate Solubility at Room Temperature ([2]; Ethanol/propylene glycol (1:1) v:v): Soluble
- Cortexolone-17α-propionate Solubility at Room Temperature ([2]; Ethanol/propylene glycol/TRANSCUTOL ® (1:1:1) v:v): Very soluble
- Cortexolone-17α-propionate Solubility at Room Temperature ([2]; Isopropyl myristate): Insoluble
- Cortexolone-17α-propionate Solubility at Room Temperature ([2]; Isopropyl palmitate): Insoluble
- Cortexolone-17α-propionate Solubility at Room Temperature ([2]; Propylene glycol): Sparingly soluble
- Cortexolone-17α-propionate Solubility at Room Temperature ([2]; TRANSCUTOL ®/water (1:1) v:v): Insoluble
- Cortexolone-17α-propionate Solubility at Room Temperature ([2]; TRANSCUTOL ®/water/ethanol (1:1:1) v:v): Soluble
- Cortexolone-17α-propionate Solubility at Room Temperature ([2]; TRANSCUTOL ®): Very soluble
- Cortexolone-17α-propionate Solubility at Room Temperature ([2]; Water/propylene glycol/TRANSCUTOL ® (1:1:1) v:v): Insoluble
- Cortexolone-17α-propionate Solubility at Room Temperature ([2]; Water/propylene glycol/TRANSCUTOL ® (1:1:2) v:v): Soluble
- Cortexolone-17α-propionate Solubility at Room Temperature ([2]; Water): Insoluble
- % Excreted, Free [1, 8]: 0 ± 0%
- % Excreted, Total [1, 8]: 0.25 ± 0.10%
- Analyte Excreted, Free [1, 8]: 0.16 ± 0.34 µg
- Analyte Excreted, Total [1, 8]: 126.37 ± 48.99 µg
- Analyte Excreted, Free [1, 9]: 2.72 ± 1.54 µg
- Analyte Excreted, Total [1, 9]: 429.53 ± 178.24 µg
- Permeation rate [3]: 1410 ± 137 ng/mL/h
- Skin concentration [3]: 231 ± 19 µg/g
- permeates skin, times as much as cyproterone acetate ([3]; versus cyproterone acetate): about 3 times
- permeation rate, times greater than cyproterone acetate ([3]; versus cyproterone acetate): about 10 times
Compound: CCC(=O)O[C@]1(C(=O)CO)CC[C@H]2[C@@H]3CCC4=CC(=O)CC[C@]4(C)[C@H]3CC[C@@]21C [Cortexolone-17α-propionate, 17α-propionyloxy-21-hydroxy-pregna-4-ene-3,20-dione]

- Permeation rate [3]: 141 ± 17 ng/mL/h
- Skin concentration [3]: 89.4 ± 4.6 µg/g
Compound: CC(=O)O[C@]1(C(C)=O)CC[C@H]2[C@@H]3C=C(Cl)C4=CC(=O)[C@@H]5C[C@@H]5[C@]4(C)[C@H]3CC[C@@]21C [Cyproterone Acetate, cyproterone acetate, reference compound]

Compound: CC(C)(C)NC(=O)[C@H]1CC[C@H]2[C@@H]3CC[C@H]4NC(=O)C=C[C@]4(C)[C@H]3CC[C@]12C [finasteride]
- Change from Baseline in non-vellus TAHC at Month 6, recalculated over a target area of 1 cm^2 ([4]; Combined (study 087 + 089)): 12.2
- Change from Baseline in non-vellus TAHC at Month 6, recalculated over a target area of 1 cm^2 ([4]; Study 087): 13.6
- Change from Baseline in non-vellus TAHC at Month 6, recalculated over a target area of 1 cm^2 ([4]; Study 089): 11.5
- Change from Baseline in non-vellus TAHC at Month 6 ([5]; Combined (study 087 + 089), target area 5.1 cm^2): 62.4
- Change from Baseline in non-vellus TAHC at Month 6 ([5]; Study 087, target area 1-inch diameter circle, 5.1 cm^2, 1 mg per os once daily): 69.5
- Change from Baseline in non-vellus TAHC at Month 6 ([5]; Study 089, target area 1-inch diameter circle, 5.1 cm^2, 1 mg per os once daily): 58.4
- decrease of serum DHT as well as scalp DHT compared to baseline [6]: up to 70%
- patients with adverse events (decreased libido, erectile dysfunction, ejaculation disorders, decreased volume of ejaculate) [7]: 1%

Reference: patent publication US10980819B2, “High concentration formulation” (Cassiopea S.P.A., priority 2015, dated 2021)
